Legend:
[1] = system: HIV-1 protease with G48V; details: thermodynamic integration and MM-PBSA; cited from earlier work
[2] = target: PR with M46L; details: cited from earlier work
[3] = system: PR with 22 mutations in addition to inactivating D25N mutation; details: PR with 22 mutations in addition to D25N; cited from earlier work
[4] = target: PR with I54V; details: cited from earlier work
[5] = system: PR^S17; details: PR^S17, flap twisting by G48V implicated; cited from earlier work
[6] = system: PR bearing the single V82A mutation; details: kinetic studies; cited from earlier work
[7] = target: PR with G48V; details: cited from earlier work
[8] = system: PR^S17; details: PR^S17, predicted from genotype–phenotype data; cited from earlier work
[9] = system: HIV-1 protease with G48V; details: flap mutation G48V; cited from earlier work
[10] = target: PR^V82A; details: read-out: Inhibition constant (Ki), determined previously; cited from earlier work
[11] = target: PR (wild-type HIV-1 protease); details: read-out: Inhibition constant (Ki), determined previously; cited from earlier work
[12] = target: PR^S17 (HIV-1 protease variant with 17 mutations); assay: Kinetic inhibition of PR^S17; assay type: biochemical; details: PR^S17 compared to PR
[13] = target: HIV-1 protease variant PR^S17 (HIV-1); assay: enzyme inhibition kinetics

## CC(C)CN(C[C@@H](O)[C@H](Cc1ccccc1)NC(=O)O[C@H]1CCOC1)S(=O)(=O)c1ccc(N)cc1 [APV, amprenavir]
[1]
  effect of G48V on van der Waals interactions: strengthens van der Waals interactions

## CC(C)CN(C[C@@H](O)[C@H](Cc1ccccc1)NC(=O)O[C@H]1CO[C@H]2OCC[C@H]21)S(=O)(=O)c1ccc(N)cc1 [DRV, darunavir]
[2]
  inhibition constant (Ki) relative to wild-type PR: worse inhibition constants
[3]
  resistance (fold): > 175 fold
[4]
  inhibition constant (Ki) relative to wild-type PR: worse inhibition constants
[5]
  cross-resistance of PR^S17: cross-resistance
[6]
  affinity of PR with V82A for inhibitor: significantly worse affinity
[7]
  inhibition constant (Ki) relative to wild-type PR: worse inhibition constants

## COC(=O)N[C@H](C(=O)N[C@@H](Cc1ccccc1)[C@@H](O)CN(Cc1ccc(-c2ccccn2)cc1)NC(=O)[C@@H](NC(=O)OC)C(C)(C)C)C(C)(C)C [atazanavir]
[8]
  predicted resistance: high-level resistance

## CC(C)(C)NC(=O)[C@@H]1CN(Cc2cccnc2)CCN1C[C@@H](O)C[C@@H](Cc1ccccc1)C(=O)N[C@H]1c2ccccc2C[C@H]1O [indinavir]
[8]
  predicted resistance: high-level resistance
[6]
  affinity of PR with V82A for inhibitor: significantly worse affinity

## Cc1cccc(C)c1OCC(=O)N[C@@H](Cc1ccccc1)[C@@H](O)C[C@H](Cc1ccccc1)NC(=O)[C@H](C(C)C)N1CCCNC1=O [lopinavir]
[8]
  predicted resistance: high-level resistance

## Cc1c(O)cccc1C(=O)N[C@@H](CSc1ccccc1)[C@H](O)CN1C[C@H]2CCCC[C@H]2C[C@H]1C(=O)NC(C)(C)C [nelfinavir]
[8]
  predicted resistance: high-level resistance
[6]
  affinity of PR with V82A for inhibitor: significantly worse affinity

## CC(C)c1nc(CN(C)C(=O)N[C@H](C(=O)N[C@@H](Cc2ccccc2)C[C@H](O)[C@H](Cc2ccccc2)NC(=O)OCc2cncs2)C(C)C)cs1 [ritonavir]
[8]
  predicted resistance: high-level resistance
[6]
  affinity of PR with V82A for inhibitor: significantly worse affinity

## CC(C)(C)NC(=O)[C@@H]1C[C@@H]2CCCC[C@@H]2CN1C[C@@H](O)[C@H](Cc1ccccc1)NC(=O)[C@H](CC(N)=O)NC(=O)c1ccc2ccccc2n1 [saquinavir]
[9]
  resistance conferred by G48V: high level of resistance
[2]
  inhibition constant (Ki) relative to wild-type PR: worse inhibition constants
[8]
  predicted resistance: high-level resistance
[4]
  inhibition constant (Ki) relative to wild-type PR: worse inhibition constants
[7]
  inhibition constant (Ki) relative to wild-type PR: worse inhibition constants

## Ace-T-I-Nle-r-Nle-Q-R [p2-NC]
[10]
  Ki: 530 nM
[11]
  Ki: 2170 nM
[12]
  Ki relative to the wild-type PR (fold better inhibition): 4.2

## R-V-L-r-F-E-A-Nle [CA-p2]
[10]
  Ki: 24 nM
[11]
  Ki: 75 nM

## substrate analogue CA-p2 (R-V-L-r-F-E-A-Nle) (peptide)
[13]
  Ki: 22 nM

## substrate analogue p2-NC (Ace-T-I-Nle-r-Nle-Q-R) (peptide)
[13]
  Ki: 514 nM

Source: PMC6545544 (ACS Omega, 2019)
